Assay results from PubChem BioAssay (NCI).
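Briefly, cells in 96-well plates were exposed to five compound concentrations for 48 h, and endpoints were estimated by linear interpolation. TGI denotes the concentration required for complete inhibition of growth.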

Test system: HL-60(TB) leukemia
Test: NCI-60 cell line screen, 48 h

Row | Structure (SMILES) | TGI [µM]
1 | C(/C=C/Nc1ccc(Oc2ccccc2)cc1)=Nc1ccc(Oc2ccccc2)cc1 | 49.7
2 | Cc1ccc([N+](=O)[O-])c2c(NCCC[N+](C)(C)[O-])c3ccccc3nc12 | 34.5
3 | O=C(N/N=C\C=C\c1ccc([N+](=O)[O-])o1)C(=O)N/N=C\C=C\c1ccc([N+](=O)[O-])o1 | 87.1
4 | CC1(C)OC(=O)N(c2ccccc2)C12C=Cc1cc([N+](=O)[O-])ccc1O2 (configuration not stated) | 63.7
5 | CSc1nnc(SC)nn1 | 11.6
6 | O=C1CC(c2cccc([N+](=O)[O-])c2)C2(C(=O)NC(=O)NC2=O)C(c2cccc([N+](=O)[O-])c2)C1 (configuration not stated) | > 100
7 | CCOC(=O)Cc1nc2cc(F)c(F)cc2[nH]c1=O | > 100
8 | CC1(C)/C(=C/N=O)N(O)C(C)(C)N1O | > 100
9 | COCc1nc2c(OC)c(-c3nc4nc(N5CCN(C)CC5)ccc4[nH]3)cc(OC)c2n1C | 36.2
10 | CCN1CCN(c2nc3ccccc3c3c2CCOc2ccccc2-3)CC1 | > 77.3
11 | N#Cc1c(-c2ccccc2)[nH]c2ccc(Cl)cc2c1=O | > 100
12 | O=C(NCP(=O)(c1ccccc1)c1ccccc1)OCc1ccccc1 | > 100
13 | O=c1cc(N2CCCC2)[nH]c(=O)n1-c1cccc(Cl)c1 | > 100
14 | CCOC(C)O[C@H]1C(=O)OCC1(C)C (some centres not stated) | > 100
15 | N#Cc1[nH]c(=O)n(-c2ccccc2)c1N | > 10
16 | O=C(NC(Cc1ccccc1)(Cc1ccc(O)cn1)C(=O)O)c1ccccc1 (configuration not stated) | 68.2
17 | COC(=O)c1cc2c(cc1CC(Cc1ccc3c(c1)CCCC3)C(=O)OC)CCCC2 (configuration not stated) | 29.7
18 | O=c1c2ccccc2nc(Cc2nc(-c3ccc(Cl)cc3)cs2)n1-c1ccc(Cl)cc1 | > 100
19 | NNC(=S)N/N=C(/C(=O)Nc1ccc(Cl)c(Cl)c1)C(C1OC(=O)c2ccccc21)[N+](=O)[O-] (configuration not stated) | > 100

Test system: SN12C renal
Test: NCI-60 cell line screen, 48 h

Row | Structure (SMILES) | TGI [µM]
20 | C(/C=C/Nc1ccc(Oc2ccccc2)cc1)=Nc1ccc(Oc2ccccc2)cc1 | 27.9
21 | Cc1ccc([N+](=O)[O-])c2c(NCCC[N+](C)(C)[O-])c3ccccc3nc12 | 8.74
22 | O=C(N/N=C\C=C\c1ccc([N+](=O)[O-])o1)C(=O)N/N=C\C=C\c1ccc([N+](=O)[O-])o1 | > 100
23 | CC1(C)OC(=O)N(c2ccccc2)C12C=Cc1cc([N+](=O)[O-])ccc1O2 (configuration not stated) | > 100
24 | CSc1nnc(SC)nn1 | 39.7
25 | O=C1CC(c2cccc([N+](=O)[O-])c2)C2(C(=O)NC(=O)NC2=O)C(c2cccc([N+](=O)[O-])c2)C1 (configuration not stated) | > 100
26 | CCOC(=O)Cc1nc2cc(F)c(F)cc2[nH]c1=O | > 100
27 | CC1(C)/C(=C/N=O)N(O)C(C)(C)N1O | > 100
28 | COCc1nc2c(OC)c(-c3nc4nc(N5CCN(C)CC5)ccc4[nH]3)cc(OC)c2n1C | > 100
29 | CCN1CCN(c2nc3ccccc3c3c2CCOc2ccccc2-3)CC1 | > 84
30 | N#Cc1c(-c2ccccc2)[nH]c2ccc(Cl)cc2c1=O | > 100
31 | O=C(NCP(=O)(c1ccccc1)c1ccccc1)OCc1ccccc1 | > 100
32 | O=c1cc(N2CCCC2)[nH]c(=O)n1-c1cccc(Cl)c1 | > 100
33 | N#Cc1[nH]c(=O)n(-c2ccccc2)c1N | > 10
34 | COC(=O)c1cc2c(cc1CC(Cc1ccc3c(c1)CCCC3)C(=O)OC)CCCC2 (configuration not stated) | > 100
35 | NNC(=S)N/N=C(/C(=O)Nc1ccc(Cl)c(Cl)c1)C(C1OC(=O)c2ccccc21)[N+](=O)[O-] (configuration not stated) | > 100

Test system: SNB-75 CNS
Test: NCI-60 cell line screen, 48 h

Row | Structure (SMILES) | TGI [µM]
36 | C(/C=C/Nc1ccc(Oc2ccccc2)cc1)=Nc1ccc(Oc2ccccc2)cc1 | 31.9
37 | Cc1ccc([N+](=O)[O-])c2c(NCCC[N+](C)(C)[O-])c3ccccc3nc12 | 2.49
38 | O=C(N/N=C\C=C\c1ccc([N+](=O)[O-])o1)C(=O)N/N=C\C=C\c1ccc([N+](=O)[O-])o1 | > 100
39 | CC1(C)OC(=O)N(c2ccccc2)C12C=Cc1cc([N+](=O)[O-])ccc1O2 (configuration not stated) | > 100
40 | CSc1nnc(SC)nn1 | 31.2
41 | O=C1CC(c2cccc([N+](=O)[O-])c2)C2(C(=O)NC(=O)NC2=O)C(c2cccc([N+](=O)[O-])c2)C1 (configuration not stated) | > 100
42 | CCOC(=O)Cc1nc2cc(F)c(F)cc2[nH]c1=O | > 100
43 | CC1(C)/C(=C/N=O)N(O)C(C)(C)N1O | > 100
44 | COCc1nc2c(OC)c(-c3nc4nc(N5CCN(C)CC5)ccc4[nH]3)cc(OC)c2n1C | 64.9
45 | CCN1CCN(c2nc3ccccc3c3c2CCOc2ccccc2-3)CC1 | > 62.6
46 | N#Cc1c(-c2ccccc2)[nH]c2ccc(Cl)cc2c1=O | > 100
47 | O=C(NCP(=O)(c1ccccc1)c1ccccc1)OCc1ccccc1 | > 100
48 | O=c1cc(N2CCCC2)[nH]c(=O)n1-c1cccc(Cl)c1 | > 100
49 | CCOC(C)O[C@H]1C(=O)OCC1(C)C (some centres not stated) | > 100
50 | N#Cc1[nH]c(=O)n(-c2ccccc2)c1N | > 10
51 | O=C(NC(Cc1ccccc1)(Cc1ccc(O)cn1)C(=O)O)c1ccccc1 (configuration not stated) | > 100
52 | COC(=O)c1cc2c(cc1CC(Cc1ccc3c(c1)CCCC3)C(=O)OC)CCCC2 (configuration not stated) | > 100
53 | O=c1c2ccccc2nc(Cc2nc(-c3ccc(Cl)cc3)cs2)n1-c1ccc(Cl)cc1 | > 100
54 | NNC(=S)N/N=C(/C(=O)Nc1ccc(Cl)c(Cl)c1)C(C1OC(=O)c2ccccc21)[N+](=O)[O-] (configuration not stated) | > 100

Test system: COLO 205 colon
Test: NCI-60 cell line screen, 48 h

Row | Structure (SMILES) | TGI [µM]
55 | C(/C=C/Nc1ccc(Oc2ccccc2)cc1)=Nc1ccc(Oc2ccccc2)cc1 | 43.6
56 | Cc1ccc([N+](=O)[O-])c2c(NCCC[N+](C)(C)[O-])c3ccccc3nc12 | 2.56
57 | O=C(N/N=C\C=C\c1ccc([N+](=O)[O-])o1)C(=O)N/N=C\C=C\c1ccc([N+](=O)[O-])o1 | > 100
58 | CC1(C)OC(=O)N(c2ccccc2)C12C=Cc1cc([N+](=O)[O-])ccc1O2 (configuration not stated) | > 100
59 | CSc1nnc(SC)nn1 | 32.7
60 | O=C1CC(c2cccc([N+](=O)[O-])c2)C2(C(=O)NC(=O)NC2=O)C(c2cccc([N+](=O)[O-])c2)C1 (configuration not stated) | > 100
61 | CCOC(=O)Cc1nc2cc(F)c(F)cc2[nH]c1=O | > 100
62 | CC1(C)/C(=C/N=O)N(O)C(C)(C)N1O | > 100
63 | COCc1nc2c(OC)c(-c3nc4nc(N5CCN(C)CC5)ccc4[nH]3)cc(OC)c2n1C | 21.5
64 | CCN1CCN(c2nc3ccccc3c3c2CCOc2ccccc2-3)CC1 | 37.2
65 | N#Cc1c(-c2ccccc2)[nH]c2ccc(Cl)cc2c1=O | > 100
66 | O=C(NCP(=O)(c1ccccc1)c1ccccc1)OCc1ccccc1 | > 100
67 | O=c1cc(N2CCCC2)[nH]c(=O)n1-c1cccc(Cl)c1 | > 100
68 | CCOC(C)O[C@H]1C(=O)OCC1(C)C (some centres not stated) | > 100
69 | N#Cc1[nH]c(=O)n(-c2ccccc2)c1N | > 10
70 | O=C(NC(Cc1ccccc1)(Cc1ccc(O)cn1)C(=O)O)c1ccccc1 (configuration not stated) | > 100
71 | COC(=O)c1cc2c(cc1CC(Cc1ccc3c(c1)CCCC3)C(=O)OC)CCCC2 (configuration not stated) | > 100
72 | O=c1c2ccccc2nc(Cc2nc(-c3ccc(Cl)cc3)cs2)n1-c1ccc(Cl)cc1 | > 100

Test system: RXF 393 renal
Test: NCI-60 cell line screen, 48 h

Row | Structure (SMILES) | TGI [µM]
73 | C(/C=C/Nc1ccc(Oc2ccccc2)cc1)=Nc1ccc(Oc2ccccc2)cc1 | 39.6
74 | Cc1ccc([N+](=O)[O-])c2c(NCCC[N+](C)(C)[O-])c3ccccc3nc12 | 3.02
75 | O=C(N/N=C\C=C\c1ccc([N+](=O)[O-])o1)C(=O)N/N=C\C=C\c1ccc([N+](=O)[O-])o1 | > 100
76 | CC1(C)OC(=O)N(c2ccccc2)C12C=Cc1cc([N+](=O)[O-])ccc1O2 (configuration not stated) | > 100
77 | CSc1nnc(SC)nn1 | 30.3
78 | O=C1CC(c2cccc([N+](=O)[O-])c2)C2(C(=O)NC(=O)NC2=O)C(c2cccc([N+](=O)[O-])c2)C1 (configuration not stated) | 61.1
79 | CCOC(=O)Cc1nc2cc(F)c(F)cc2[nH]c1=O | > 100
80 | CC1(C)/C(=C/N=O)N(O)C(C)(C)N1O | > 100
81 | COCc1nc2c(OC)c(-c3nc4nc(N5CCN(C)CC5)ccc4[nH]3)cc(OC)c2n1C | 57.6
82 | CCN1CCN(c2nc3ccccc3c3c2CCOc2ccccc2-3)CC1 | > 65.1
83 | N#Cc1c(-c2ccccc2)[nH]c2ccc(Cl)cc2c1=O | 49
84 | O=C(NCP(=O)(c1ccccc1)c1ccccc1)OCc1ccccc1 | > 100
85 | O=c1cc(N2CCCC2)[nH]c(=O)n1-c1cccc(Cl)c1 | > 100
86 | CCOC(C)O[C@H]1C(=O)OCC1(C)C (some centres not stated) | > 100
87 | N#Cc1[nH]c(=O)n(-c2ccccc2)c1N | > 10
88 | O=C(NC(Cc1ccccc1)(Cc1ccc(O)cn1)C(=O)O)c1ccccc1 (configuration not stated) | > 100
89 | COC(=O)c1cc2c(cc1CC(Cc1ccc3c(c1)CCCC3)C(=O)OC)CCCC2 (configuration not stated) | 72.9
90 | O=c1c2ccccc2nc(Cc2nc(-c3ccc(Cl)cc3)cs2)n1-c1ccc(Cl)cc1 | > 100
91 | NNC(=S)N/N=C(/C(=O)Nc1ccc(Cl)c(Cl)c1)C(C1OC(=O)c2ccccc21)[N+](=O)[O-] (configuration not stated) | > 100

Test system: HS 578T breast
Test: NCI-60 cell line screen, 48 h

Row | Structure (SMILES) | TGI [µM]
92 | C(/C=C/Nc1ccc(Oc2ccccc2)cc1)=Nc1ccc(Oc2ccccc2)cc1 | 43.4
